Values of other authors, collected in patent US20160008277A1, “CO-PACKAGED DRUG PRODUCTS” (Lightlake Therapeutics Inc., priority 2014, published 2016).

Key:
[1] = system: rat; conditions: intravenous; cited from earlier work
[2] = system: mouse; conditions: intravenous; cited from earlier work
[3] = system: newborn rats; conditions: acute subcutaneous; cited from earlier work

C=CCN1CC[C@]23c4c5ccc(O)c4O[C@H]2C(=O)CC[C@@]3(O)[C@H]1C5.Cl [naloxone hydrochloride, 17-allyl-4,5a-epoxy-3,14-dihydroxymorphinan-6-one hydrochloride]
LD50 [1]: 109 ± 4 mg/kg | LD50 [2]: 150 ± 5 mg/kg | LD50 (95% CL) [3]: 260 (228-296) mg/kg
